Data reported in patent EP0407583A1, “DERIVATIVES OF DICHLOR[…] ACYLAMIDO[…] AND INSECTICIDAL, FU[…] HEMATOCIDAL PREPARATIONS BASED ON THEM” (priority 1989, dated 1990).

Tests used:
Candida albicans [1] = experiment: Fungicidal activity, laboratory test on Sabouraud medium; assay type: cell-based; details: composition 0.01 % by mass in distilled water
[2] = Toxicity LD50 of the compound; assay type: in vivo; details: species and route not given
Candida tropicalis [3] = experiment: Fungicidal activity, laboratory test on Sabouraud medium; assay type: cell-based; details: composition 0.01 % by mass in distilled water
Protocol: A fungicidal composition based on this compound was prepared which was a solution of it in distilled water at the concentration pf 0.01 % by mass. A fungicidal activity of the composition, according to the invention, was tested in laboratory conditions for inhibiting the growth of fungi such as Candida tropicalis affecting the macosal and skin coats, and internals.
To this, the Petri dishes containing the Sabouraud growth medium were inoculated with a suspension of microorganisms at the concentration of 5x10^7 cells of fungi in 1 ml.
The restricted surface areas (7 mm in diameter) were coated with the composition by means of a small metal spatula 4x4 mm in size. In a day of incubating at 37 °C in a thermostat, the composition inhibited the growth of yeast--like fungi. An antifungal activity of the composition was specified by a method of 10-fold serial dilution using Sabouraud's liquid medium in 2 ml of which 2x10^5 cells were introduced. After two days of incubation in the thermostat at 34 °C, a minimum dilution of the substance exerting a fungicidal effect was determined.

Solubility (qualitative) = details: water, alcohols, acetone
Candida tropicalis [4] = experiment: Fungicidal activity, large-scale test on contaminated surfaces and fabrics; assay type: cell-based; details: composition 0.01 % by mass; surfaces of ceramics, metal, wood, rubber, fabrics
Protocol: (§1) The large-scale tests were carried out by using Candida albicans and Candida tropicalis strains 2-day culture of which was diluted with an isotonic solution of sodium chloride to the concentration of 5x10^7 cells in 1 ml.
(§2) The suspended cell culture was applied onto the surface (7 mm in diameter) of articles made of ceramics, metal, wood and rubber as well as cotton, flannel woollen fabrics which were presterillized.
(§3) In a day after incubating from the treated surfaces, the washings were taken with a cotton-gauze tampon wetted with Sabouraud^ts liquid medium, immersed into the tubes with a similar medium and placed into a thermostat at 37 °C for two days. Thereafter, the inoculum was introduced in Sabouraud's stiff agar, and the growth records were made by a conventional procedure.

Candida albicans [5] = experiment: as above; assay type: cell-based; details: composition 0.01 % by mass; surfaces of ceramics, metal, wood, rubber, fabrics
Protocol: as §1, §2, §3

[6] = test system: leaves of tomato and cucumber; experiment: Phytotoxic effect on leaves; assay type: in vivo; details: nematocidal composition, 1% solution in distilled water
[7] = test system: invasion larvae of gall nematodes; experiment: Nematocidal effect on invasion larvae, experimental (object glass) test; assay type: in vivo; details: 1% solution in distilled water; 100 invasion larvae; 24 hours
Protocol: A nematocidal effect of the composition, according to the invention, was tested on invasion larvae of gall nematodes. To this end, 1 droplet of a suspension containing 100 invasion larvae of gall nematodes was placed onto the object glasses with cells. 1 droplet of the composition of the invention was added thereinto. 1 drop of distilled water was added to the control cell instead of the composition, according to the invention. The glasses with test and control cells were placed onto Petri dish with a moisten ashless filter, and 24 hours later the killed nematodes were recorded. The tests were 3-fold repeated. The study of a nematocidal activity was conducted in comparison with a known nematocidal composition based on 0,0-dimethyl-0-/2-(N,N'-diethylcarbamoyl)-1-methyl-2-chlorovinyl/ /phosphate.

gall nematodes = experiment: Nematocidal effect, field test on affected tomato plants; assay type: in vivo; details: 5 m^2 plots of tomato plants affected by nematodes
Protocol: In the field conditions, the plots of 5 m^2 in size of tomato plants affected by nematodes were treated with the claimed nematocidal compositions and the known nematocides.

mice and rats = details: for mice and rats; cited from earlier work

Row | SMILES | Inhibition of growth of fungal colonies, % Candida albicans tests laboratory (Candida albicans [1]) [%] | LD50 [2] [ml/k^g] | Inhibition of growth of fungal colonies, % Candida tropicalis tests laboratory (Candida tropicalis [3]) [%] | solubility (Solubility (qualitative)) | Inhibition of growth of fungal colonies, % Candida tropicalis tests large-scale (Candida tropicalis [4]) [%] | Inhibition of growth of fungal colonies, % Candida albicans tests large-scale (Candida albicans [5]) [%] | phytotoxical effect on leaves of tomato and cucumber [6] | Death of larvae, %, conditions experimental [7] [%] | Death of larvae, %, conditions field (gall nematodes) [%] | LD50 (mice and rats) [mg/kg]
1 | O=C(NP(=O)(Sc1ccc(Cl)cc1)Sc1ccc(Cl)cc1)C(Cl)(Cl)CCl [Example 9, di--para-chlorothiophenyl ether of α, α,β-trichloropropio- nylamidophosphoric acid] | 100 | 670 | 100 | soluble in water, alcohols, acetone | 100 | 100 |  |  |  | 
2 | O=C(NP(=O)(Nc1ccccc1Cl)Nc1ccccc1Cl)c1ccc(Br)cc1 [Example 17, para-bromobenzoylamidophosphoric acid di-ortho-chloroanilide] |  |  |  | soluble in water, alcohols, acetone |  |  | no phytotoxical effect | 100 | 100 | 
3 | COP(=O)(OC)C(O)C(Cl)(Cl)Cl (centres unmarked) [Known composition, 0,0-dimethyl(1-hydroxy-2,2,2-trichloroethyl)phosphonate] |  |  |  |  |  |  |  |  |  | 225 to 1200
